In ChEMBL document CHEMBL1201862, “PubChem BioAssay data set” (2004):
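Grown in 96-well plates, cells were treated for 48 hours with each compound at five concentrations. Insufficient inhibition: endpoint recorded as highest concentration tested. GI50: concentration for 50% inhibition of growth.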 The source made the active and inactive calls. No stated cut-off is given here; in the data, active = GI50 up to about 1.1 µM and inactive = higher. Peptide text beside a SMILES is read from it. * marks the point of attachment. Boc = CC(C)(C)OC(=O)*; OBn = c1ccc(CO*)cc1

Experiments:
Experiment in all cases: NCI-60 cell line screen, 48 h
A498 = test system: A498
MDA-MB-435 = test system: MDA-MB-435
PC-3 = test system: PC-3
NCI/ADR-RES = test system: NCI/ADR-RES
SK-MEL-2 = test system: SK-MEL-2
SF-539 = test system: SF-539
Malme-3M = test system: Malme-3M
MDA-MB-231 = test system: MDA-MB-231
SK-MEL-28 = test system: SK-MEL-28
OVCAR-4 = test system: OVCAR-4
HCT-15 = test system: HCT-15
SNB-75 = test system: SNB-75
HOP-62 = test system: HOP-62
LOX IMVI = test system: LOX IMVI
SK-OV-3 = test system: SK-OV-3
MDA-N = test system: MDA-N
MCF7 = test system: MCF7
COLO 205 = test system: COLO 205
UO-31 = test system: UO-31
UACC-62 = test system: UACC-62

SMILES | GI50 (A498) | GI50 (MDA-MB-435) | GI50 (PC-3) | GI50 (NCI/ADR-RES) | GI50 (SK-MEL-2) | GI50 (SF-539) | GI50 (Malme-3M) | GI50 (MDA-MB-231) | GI50 (SK-MEL-28) | GI50 (OVCAR-4) | GI50 (HCT-15) | GI50 (SNB-75) | GI50 (HOP-62) | GI50 (LOX IMVI) | GI50 (SK-OV-3) | GI50 (MDA-N) | GI50 (MCF7) | GI50 (COLO 205) | GI50 (UO-31) | GI50 (UACC-62)
COc1ccc(OC)c(NS(=O)(=O)c2ccc3nc(C)n(NS(=O)(=O)c4cc(OC)ccc4OC)c(=O)c3c2)c1 | > 100 µM (inactive) | 14.3 µM (inactive) | 78.9 µM (inactive) | > 100 µM (inactive) | > 100 µM (inactive) | > 100 µM (inactive) | > 100 µM (inactive) | > 100 µM (inactive) | > 100 µM (inactive) | 93.3 µM (inactive) | > 100 µM | > 100 µM (inactive) | > 100 µM (inactive) | 77.6 µM (inactive) | > 100 µM (inactive) | 41.7 µM (inactive) | 87.1 µM (inactive) | > 100 µM (inactive) | 87.9 µM (inactive) | > 100 µM (inactive)
NCCSc1nc2ccccc2c(=O)n1-c1ccccc1 | 26.5 µM (inactive) | 23.9 µM (inactive) | 27.9 µM (inactive) | 68.9 µM (inactive) | 67 µM (inactive) | 32.7 µM (inactive) | 30.2 µM (inactive) | > 100 µM (inactive) | > 100 µM (inactive) | 52.8 µM (inactive) | 43.8 µM | 33.9 µM (inactive) | 61.7 µM (inactive) | 71.9 µM (inactive) | > 100 µM (inactive) | 42.9 µM (inactive) | 90.8 µM (inactive) | > 100 µM (inactive) | 24.4 µM (inactive) | 26.4 µM (inactive)
CCOc1cc(NC(C)=O)ccc1C(=O)NN1C(=O)C(Cl)C1c1ccc(O)c(OC)c1 (stereo not given) | 14.6 µM (inactive) | 12.6 µM (inactive) | 14.1 µM (inactive) | 20.4 µM (inactive) | 14.8 µM (inactive) | 11.4 µM (inactive) | 8 µM (inactive) | 13.3 µM (inactive) | 16.9 µM (inactive) | 12.8 µM (inactive) | 14.2 µM | 11.8 µM (inactive) | 16.1 µM (inactive) | 2.17 µM (inactive) | 17.3 µM (inactive) | 14.2 µM (inactive) | 13.8 µM (inactive) | 15.6 µM (inactive) | 2.43 µM (inactive) | 12.3 µM (inactive)
O=c1cc(NCc2ccncc2)[nH]c(=O)[nH]1 | > 100 µM (inactive) | > 100 µM (inactive) | > 100 µM (inactive) | > 100 µM (inactive) | > 100 µM (inactive) | > 100 µM (inactive) | > 100 µM (inactive) | > 100 µM (inactive) | > 100 µM (inactive) | > 100 µM (inactive) | > 100 µM | > 100 µM (inactive) | > 100 µM (inactive) | > 100 µM (inactive) | > 100 µM (inactive) | > 100 µM (inactive) | > 100 µM (inactive) | > 100 µM (inactive) | > 100 µM (inactive) | > 100 µM (inactive)
COc1nc(N=P(c2ccccc2)(c2ccccc2)c2ccccc2)cc(=O)[nH]1 | > 100 µM (inactive) | > 100 µM (inactive) | > 100 µM (inactive) | > 100 µM (inactive) | > 100 µM (inactive) | > 100 µM (inactive) | > 100 µM (inactive) | > 100 µM (inactive) | > 100 µM (inactive) | > 100 µM (inactive) | > 100 µM | > 100 µM (inactive) | > 100 µM (inactive) | > 100 µM (inactive) | > 100 µM (inactive) | > 100 µM (inactive) | > 100 µM (inactive) | > 100 µM (inactive) | > 100 µM (inactive) | > 100 µM (inactive)
BC(=O)NC(CC(C)C)C(=O)NC1c2ccsc2C(=O)C1O.CN(C)C (stereo not given) | > 100 µM (inactive) | > 100 µM (inactive) | > 100 µM (inactive) | > 100 µM (inactive) | > 100 µM (inactive) | > 100 µM (inactive) | > 100 µM (inactive) | > 100 µM (inactive) | > 100 µM (inactive) | > 100 µM (inactive) | > 100 µM | > 100 µM (inactive) | > 100 µM (inactive) | > 100 µM (inactive) | > 100 µM (inactive) | > 100 µM (inactive) | > 100 µM (inactive) | > 100 µM (inactive) | > 100 µM (inactive) | > 100 µM (inactive)
CC(NC(=O)C(NC(=O)OC(C)(C)C)C(C)C)C(=O)N1CCCC1C(=O)NCC(=O)NC(C(=O)NCC(=O)OCc1ccccc1)C(C)C (stereo not given) (Boc-VAPGVG-OBn; configuration not given here) | > 100 µM (inactive) | > 100 µM (inactive) | > 100 µM (inactive) | > 100 µM (inactive) | > 100 µM (inactive) | > 100 µM (inactive) | > 100 µM (inactive) | > 100 µM (inactive) | > 100 µM (inactive) | > 100 µM (inactive) | > 100 µM | 71.3 µM (inactive) | > 100 µM (inactive) | > 100 µM (inactive) | > 100 µM (inactive) | > 100 µM (inactive) | > 100 µM (inactive) | > 100 µM (inactive) | > 100 µM (inactive) | 66.4 µM (inactive)
C[As](C)SCC(NC(=O)CCC(N)C(=O)O)C(=O)NCC(=O)O.c1ccncc1 (stereo not given) | 0.437 µM (active) | 0.0843 µM (active) | 0.268 µM (active) | 0.141 µM (active) | 0.338 µM (active) | 0.105 µM (active) | 0.0389 µM (active) | 0.261 µM (active) | 0.421 µM (active) | 0.592 µM (active) | 0.0702 µM | 2.7 µM (inactive) | 0.885 µM (active) | 0.18 µM (active) | 7.31 µM (inactive) | 0.0431 µM (active) | 0.126 µM (active) | 0.105 µM (active) | 0.182 µM (active) | 0.269 µM (active)
CCN(CC)CCCNc1[nH]c2ccccc2c2nc3ccc(OC)cc3c1-2 | 2.12 µM (inactive) | 1.6 µM (inactive) | 1.22 µM (inactive) | 1.27 µM (inactive) | 1.73 µM (inactive) | 2.16 µM (inactive) | 1.76 µM (inactive) | 1.54 µM (inactive) | 1.69 µM (inactive) | 1.21 µM (inactive) | 1.21 µM | 1.77 µM (inactive) | 1.43 µM (inactive) | 1.11 µM (active) | 3.08 µM (inactive) | 1.56 µM (inactive) | 1.04 µM (active) | 1.32 µM (inactive) | 4.01 µM (inactive) | 4.68 µM (inactive)
